Reference: patent US20250161307A1, “PYRAZOLOPYRIMIDINES AS MODULATORS OF SPERMINE OXIDASE” (Janssen Pharmaceutica NV, priority 2022, published 2025)
Where a name gives a salt, the structure may show the parent alone.

Experiments:
SMOX = SMOX (Homo sapiens (Human), UniProt Q9NWM0); assay: Human SMOX assay (HyPerBlu chemiluminescent detection of hydrogen peroxide); type: biochemical; details: 2.5 nM full length hSMOX, spermine substrate, 1 h at room temperature, luminescence read; read-out: SMOx_IC50
SMOX, sequence (Q9NWM0 whole entry): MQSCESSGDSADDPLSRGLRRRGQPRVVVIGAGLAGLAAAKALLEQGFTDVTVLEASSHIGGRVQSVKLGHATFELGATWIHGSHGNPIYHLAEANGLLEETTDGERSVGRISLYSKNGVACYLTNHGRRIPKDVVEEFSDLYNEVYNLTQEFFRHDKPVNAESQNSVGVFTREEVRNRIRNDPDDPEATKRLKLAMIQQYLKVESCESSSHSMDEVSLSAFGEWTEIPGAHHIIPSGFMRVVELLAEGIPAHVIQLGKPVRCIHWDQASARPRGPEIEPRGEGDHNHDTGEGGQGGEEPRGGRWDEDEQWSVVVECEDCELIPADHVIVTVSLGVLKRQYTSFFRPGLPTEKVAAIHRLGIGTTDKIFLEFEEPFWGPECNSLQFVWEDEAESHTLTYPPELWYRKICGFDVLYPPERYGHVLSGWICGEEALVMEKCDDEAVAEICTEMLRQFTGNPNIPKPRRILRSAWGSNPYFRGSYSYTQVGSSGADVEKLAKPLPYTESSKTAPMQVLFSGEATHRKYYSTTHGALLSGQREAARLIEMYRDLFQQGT
Experimental: (§1) The direct detection of hydrogen peroxide produced from the enzymatic reaction of hSMOX or hPAOX in a biochemical assay format was measured using HyPerBlu (Lumigen, Southfield, MI), a small molecule boronate probe that reacts with hydrogen peroxide to generate a chemiluminescent signal. Inhibition of hSMOX or hPAOX enzyme results in a decrease in luminescence.
Test compounds (75 nL) dissolved in DMSO were added to a 384-well white assay plate (Greiner Bio-one, catalog #784075) using an ECHO Acoustic Dispenser (Labcyte). Each compound was serially diluted 3-fold in DMSO to prepare an 11-point dose response curve (columns 1-22). Column 23 and 24 contained 75 nL of 2 mM chlorhexidine and DMSO, respectively, to represent the 100% inhibited versus the neutral control reactions.
Subsequently, 3 μL/well of the substrate solution prepared in assay buffer (10 mM Hepes, pH 7.4, 150 mM NaCl, 1 mM EGTA, 0.01% Pluronic F-127, 0.05% ovalbumin) was dispensed into the assay plate followed by 3 μL/well of full length hSMOX enzyme with an N-terminal His tag from E. coli prepared in assay buffer to initiate the reactions. After a 1 h incubation at room temperature, 6 μL/well of HyPerBlu was added. After a 30 min incubation, the hydrogen peroxide product generated from the hSMOX reactions was measured using an endpoint luminescence read on the PHERAStar FS/FSX microplate reader (BMG LABTECH).
The final assay conditions included 10 mM Hepes, pH 7.4, 150 mM NaCl, 1 mM EGTA, 0.01% Pluronic F-127, 0.05% ovalbumin, 2.5 nM hSMOX, 30 µM spermine, and 1.25% DMSO.
Dose-response curves were fit and compound IC50 values were determined using Genedata Screener (Genedata AG).

hPAOX = hPAOX (Homo sapiens (Human), UniProt Q6QHF9); assay: Human PAOX assay (HyPerBlu chemiluminescent detection of hydrogen peroxide); type: biochemical; details: 60 pM recombinant PAOX, 20 μM N-acetylspermine substrate
hPAOX, sequence (Q6QHF9 whole entry): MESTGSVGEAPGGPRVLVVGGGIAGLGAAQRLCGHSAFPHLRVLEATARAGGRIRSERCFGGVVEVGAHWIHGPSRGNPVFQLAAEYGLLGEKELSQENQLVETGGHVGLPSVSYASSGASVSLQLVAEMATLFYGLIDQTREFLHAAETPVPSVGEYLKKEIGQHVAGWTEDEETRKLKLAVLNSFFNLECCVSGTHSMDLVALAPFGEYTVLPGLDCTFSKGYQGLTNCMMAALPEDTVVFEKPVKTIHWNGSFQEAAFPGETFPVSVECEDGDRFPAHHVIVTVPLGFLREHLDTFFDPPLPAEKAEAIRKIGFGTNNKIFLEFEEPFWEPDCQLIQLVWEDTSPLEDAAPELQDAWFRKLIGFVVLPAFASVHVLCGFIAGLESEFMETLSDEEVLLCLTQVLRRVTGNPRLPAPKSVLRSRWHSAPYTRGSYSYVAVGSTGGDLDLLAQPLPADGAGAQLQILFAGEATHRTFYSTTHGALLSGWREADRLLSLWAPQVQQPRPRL
Experimental: as §1
The hPAOX assay was run and the data analyzed similarly to the hSMOX assay described above, except the reactions contained 60 pM recombinant PAOX with an N-terminal His tag expressed from sf9 insect cells and used 20 μM N-acetylspermine as the substrate.

IC50 (SMOX) [µM]	IC50 (hPAOX) [µM]	SMILES
4.57	3.61	O=C(NCCCn1ccnc1)c1cc2nc(-c3ccccc3)cc(-c3ccncc3)n2n1 [Example 97, N-(3-(1H-imidazol-1-yl)propyl)-5-phenyl-7-(pyridin-4-yl)pyrazolo[1,5-a]pyrimidine-2-carboxamide]
0.988	5.36	CN1CCC(NC(=O)c2cc3nc(-c4ccccc4)cc(N4CCCCC4)n3n2)C1 (centres unmarked) [Example 71, N-(1-methylpyrrolidin-3-yl)-5-phenyl-7-(piperidin-1-yl)pyrazolo[1,5-a]pyrimidine-2-carboxamide trifluoroacetate]
0.907	1.94	CN1CCC(CNC(=O)c2cc3nc(-c4ccccc4)cc(-c4ccccc4)n3n2)CC1 [Example 24, N-((1-Methylpiperidin-4-yl)methyl)-5,7-diphenylpyrazolo[1,5-a]pyrimidine-2-carboxamide]
0.142	0.197	O=C(NCC1CCCN1)c1cc2nc(-c3ccccc3)cc(-c3ccccc3)n2n1 (centres unmarked) [Example 117, 5,7-diphenyl-(pyrrolidin-2-ylmethyl)pyrazolo[1,5-a]pyrimidine-2-carboxamide]
0.412	4.36	O=C(NC1CCN(Cc2ccccc2)C1)c1cc2nc(-c3ccccc3)cc(-c3ccccc3)n2n1 (centres unmarked) [Example 16, N-(1-Benzylpyrrolidin-3-yl)-5,7-diphenylpyrazolo[1,5-a]pyrimidine-2-carboxamide]
0.567	10.3	CN(CCCn1ccnc1)C(=O)c1cc2nc(-c3ccccc3)cc(-c3ccccc3)n2n1 [Example 11, N-(3-(1H-Imidazol-1-yl)propyl)-N-methyl-5,7-diphenylpyrazolo[1,5-a]pyrimidine-2-carboxamide]
0.681	0.818	Cc1ccc(-c2cc(-c3ccccc3)nc3cc(C(=O)NCCCn4ccnc4)nn23)cc1 [Example 83, N-(3-(1H-imidazol-1-yl)propyl)-5-phenyl-7-(p-tolyl)pyrazolo[1,5-a]pyrimidine-2-carboxamide]
1.63	1.94	CC(C)Cc1cc(-c2ccccc2)nc2cc(C(=O)NCCCn3ccnc3)nn12 [Example 112, N-(3-(1H-imidazol-1-yl)propyl)-7-isobutyl-5-phenylpyrazolo[1,5-a]pyrimidine-2-carboxamide]
0.285	0.289	COc1ccccc1-c1cc(-c2ccccc2)nc2cc(C(=O)NCCCn3ccnc3)nn12 [Example 80, N-(3-(1H-imidazol-1-yl)propyl)-7-(2-methoxyphenyl)-5-phenylpyrazolo[1,5-a]pyrimidine-2-carboxamide]
0.282	0.213	O=C(NC1CNC1)c1cc2nc(-c3ccccc3)cc(-c3ccccc3)n2n1 [Example 115, N-(azetidin-3-yl)-5,7-diphenylpyrazolo[1,5-a]pyrimidine-2-carboxamide]
0.725	5.37	CN1CC(NC(=O)c2cc3nc(-c4ccccc4)cc(Oc4ccccc4)n3n2)C1 [Example 76, N-(1-methylazetidin-3-yl)-7-phenoxy-5-phenylpyrazolo[1,5-a]pyrimidine-2-carboxamide]
7.34	> 31.2	CN(C)CCN(C)C(=O)c1cc2nc(-c3ccccc3)cc(-c3ccccc3)n2n1 [Example 44, N-(2-(Dimethylamino)ethyl)-N-methyl-5,7-diphenylpyrazolo[1,5-a]pyrimidine-2-carboxamide]
0.691	0.535	O=C(NCC1CCN(C2CC2)C1)c1cc2nc(-c3ccccc3)cc(-c3ccccc3)n2n1 (centres unmarked) [Example 22, N-((1-Cyclopropylpyrrolidin-3-yl)methyl)-5,7-diphenylpyrazolo[1,5-a]pyrimidine-2-carboxamide]
0.114	0.666	CN1CC(NC(=O)c2cc3nc(-c4cccc(F)c4)cc(-c4ccccc4)n3n2)C1 [Example 105, 5-(3-fluorophenyl)-N-(1-methylazetidin-3-yl)-7-phenylpyrazolo[1,5-a]pyrimidine-2-carboxamide]
0.108	9.06	CN1CC(NC(=O)c2nn3c(-c4ccccc4)cc(-c4ccccc4)nc3c2Cl)C1 [Example 49, 3-Chloro-N-(1-methylazetidin-3-yl)-5,7-diphenylpyrazolo[1,5-a]pyrimidine-2-carboxamide]
0.776	8.46	O=C(NCCCn1ccnc1)c1cc2nc(-c3ccccc3)cc(C3CCCCN3)n2n1 (centres unmarked) [Example 114, N-(3-(1H-imidazo-1-yl)propyl)-5-phenyl-7-(piperidin-2.yl)pyrazolo[1,5-a]pyrimidine-2-carboxamide]
1.2	2.29	O=C(NCCCn1ccnc1)c1cc2nc(-c3ccccc3)cc(C3CC3)n2n1 [Example 113, N-(3-(1H-imidazol-1-yl)propyl)-7-cyclopropyl-5-phenylpyrazolo[1,5-a]pyrimidine-2-carboxamide]
0.164	0.485	CN1CC(NC(=O)c2cc3nc(-c4ccc(F)cc4)cc(-c4ccccc4)n3n2)C1 [Example 106, 5-(4-fluorophenyl)-N-(1-methylazetidin-3-yl)-7-phenylpyrazolo[1,5-a]pyrimidine-2-carboxamide]
> 31.2	24.8	CN1CCN(c2cc(-c3ccccc3)nc3cc(C(=O)NCCCn4ccnc4)nn23)CC1 [Example 60, N-(3-(1H-Imidazol-1-yl)propyl)-7-(4-methylpiperazin-1-yl)-5-phenylpyrazolo[1,5-a]pyrimidine-2-carboxamide]
0.393	10.7	CN1CC[C@@H](NC(=O)c2cc3nc(-c4ccccc4)cc(-c4ccccc4)n3n2)C1 [Example 8, (R)—N-(1-Methylpyrrolidin-3-yl)-5,7-diphenylpyrazolo[1,5-a]pyrimidine-2-carboxamide]
0.23	0.103	CNCCCNC(=O)c1cc2nc(-c3ccccc3)cc(-c3ccccc3)n2n1 [Example 118, N-(3-(methylamino)propyl)-5,7-diphenylpyrazolo[1,5-a]pyrimidine-2-carboxamide]
0.737	26.7	CC(C)Oc1cc(-c2ccccc2)nc2cc(C(=O)NC3CN(C)C3)nn12 [Example 75, 7-isopropoxy-N-(1-methylazetidin-3-yl)-5-phenylpyrazolo[1,5-a]pyrimidine-2-carboxamide]
0.401	2.44	CCN1CCC[C@H]1CNC(=O)c1cc2nc(-c3ccccc3)cc(-c3ccccc3)n2n1 [Example 14, (S)—N-((1-Ethylpyrrolidin-2-yl)methyl)-5,7-diphenylpyrazolo[1,5-a]pyrimidine-2-carboxamide]
0.996	0.643	CN1CC(NC(=O)c2cc3nc(-c4ccccc4)cc(-c4ncccn4)n3n2)C1 [Example 93, N-(1-methylazetidin-3-yl)-5-phenyl-7-(pyrimidin-2-yl)pyrazolo[1,5-a]pyrimidine-2-carboxamide]
0.486	3.93	O=C(NCCCn1ccnc1)c1cc2nc(-c3ccccc3)cc(N3CC4CC4C3)n2n1 (centres unmarked) [Example 61, N-(3-(1H-Imidazol-1-yl)propyl)-7-(3-azabicyclo[3.1.0]hexan-3-yl)-5-phenylpyrazolo[1,5-a]pyrimidine-2-carboxamide]
0.523	0.362	O=C(NCCCN1CCC1)c1cc2nc(-c3ccccc3)cc(-c3ccccc3)n2n1 [Example 35, N-(3-(Azetidin-1-yl)propyl)-5,7-diphenylpyrazolo[1,5-a]pyrimidine-2-carboxamide]
0.519	0.544	CC(=O)Nc1cccc(-c2cc(-c3ccccc3)nc3cc(C(=O)NCCCn4ccnc4)nn23)c1 [Example 77, N-(3-(1H-imidazol-1-yl)propyl)-7-(3-acetamidophenyl)-5-phenylpyrazolo[1,5-a]pyrimidine-2-carboxamide]
0.072	0.181	O=C(NCCCn1ccnc1)c1cc2nc(-c3ccc(C(F)(F)F)cc3)cc(-c3ccccc3)n2n1 [Example 101, N-(3-(1H-imidazol-1-yl)propyl)-7-phenyl-5-(4-(trifluoromethyl)phenyl)pyrazolo[1,5-a]pyrimidine-2-carboxamide]
0.33	1.31	O=C(NCCCn1ccnc1)c1cc2nc(-c3ccccc3)cc(-c3ccc4nonc4c3)n2n1 [Example 84, N-(3-(1H-imidazol-1-yl)propyl)-7-(benzo[c][1,2,5]oxadiazol-5-yl)-5-phenylpyrazolo[1,5-a]pyrimidine-2-carboxamide]
0.242		COc1ccc(-c2cc(-c3ccccc3)nc3cc(C(=O)NCCCn4ccnc4)nn23)cc1 [Example 79, N-(3-(1H-imidazol-1-yl)propyl)-7-(4-methoxyphenyl)-5-phenylpyrazolo[1,5-a]pyrimidine-2-carboxamide]
